This note sets out measurements from patent US9637501B2, “Pyridin-3-yl acetic acid macrocycles as inhibitors of human immunodeficiency virus replication” (priority 2014, dated 2017).

Each structure is given as a SMILES string. Where two headings read alike, the source gives them in different places.

For series [1] the following is noted: rcm bond, Hoveyda-Grubbs catalyst 2nd generation, 1,2-dichloroethane, 3 steps.
Series [2] deals with recombinant NL-RLuc virus (NL4-3 with Renilla Luciferase gene) in MT-2 cells. Briefly: Inhibition of HIV replication (NL-RLuc virus, luciferase readout in MT-2 cells). The format is cell-based. To be noted: 5 days of incubation, 10% FBS. From the text:
Inhibition of HIV Replication:
A recombinant NL-RLuc proviral clone was constructed in which a section of the nef gene from NL4-3 was replaced with the Renilla Luciferase gene. This virus is fully infectious and can undergo multiple cycles of replication in cell culture. In addition, the luciferous reporter provides a simple and easy method for quantitating the extent of virus growth and consequently, the antiviral activity of test compounds. The plasmid pNLRLuc contains the proviral NL-Rluc DNA cloned into pUC18 at the PvuII site. The NL-RLuc virus was prepared by transfection of 293T cells with the plasmid pNLRLuc. Transfections were performed using the LipofectAMINE PLUS kit from Invitrogen (Carlsbad, Calif.) according to the manufacturer and the virus generated was titered in MT-2 cells. For susceptibility analyses, the titrated virus was used to infect MT-2 cells in the presence of compound, and after 5 days of incubation, cells were processed and quantitated for virus growth by the amount of expressed luciferase. Assay media was RPMI 1640 supplemented with 10% heat inactivated fetal bovine serum (FBS), 100 units/ml penicillin G/100 units/ml streptomycin, 10 mM HEPES buffer pH 7.55 and 2 mM L-glutamine. The results from at least 2 experiments were used to calculate the EC50 values. Luciferase was quantitated using the Dual Luciferase kit from Promega (Madison, Wis.). Susceptibility of viruses to compounds was determined by incubation in the presence of serial dilutions of the compound. The 50% effective concentration (EC50) was calculated by using the exponential form of the median effect equation where (Fa)=1/[1+(ED50/drug conc.)^m] (Johnson V A, Byington R T. Infectivity Assay. In Techniques in HIV Research. ed. Aldovini A, Walker B D. 71-76. New York: Stockton Press. 1990).

The compound `Cc1nc(C)c([C@H](OC(C)(C)C)C(=O)O)c2c1-c1ccc(cc1)OC(c1ccc(Cl)cc1)CCCCOC1(C)CCN2CC1` (stereo partly shown) had a ring closure, yield of all isomers in series [1] (from C=CCOC1(C)CCN(c2c(-c3ccc(OC(CC=C)c4ccc(Cl)cc4)cc3)c(C)nc(C)c2[C@H](OC(C)(C)C)C(=O)OCC)CC1, 6.25 mM, 70.0 °C, 0.5 h) of 59.1%.

In series [1] (from C=CCOC1(C)CCN(c2c(-c3ccc(OC(CC=C)c4ccccc4)cc3)c(C)nc(C)c2[C@H](OC(C)(C)C)C(=O)OCC)CC1, 70.0 °C, 1.0 h), `Cc1nc(C)c([C@H](OC(C)(C)C)C(=O)O)c2c1-c1ccc(cc1)OC(c1ccccc1)CCCCOC1(C)CCN2CC1` (stereo partly shown) returned a ring closure, yield of all isomers of 63.8%.

Regarding `Cc1nc(C)c([C@H](OC(C)(C)C)C(=O)O)c2c1-c1ccc(cc1)OC(c1ccccc1)CCCCOC1(C)CCN2CC1` (single isomer, unassigned) [Example 3], the EC50 in series [2] was 0.854 µM.

`Cc1nc(C)c([C@H](OC(C)(C)C)C(=O)O)c2c1-c1ccc(cc1)OC(c1ccccc1)CCCCOC1(C)CCN2CC1` (single isomer, unassigned) [Example 4]: the EC50 in series [2] came to 0.349 µM.

With `Cc1nc(C)c([C@H](OC(C)(C)C)C(=O)O)c2c1-c1ccc(cc1)OC(c1ccc(Cl)cc1)CCCCOC1(C)CCN2CC1` (single isomer, unassigned) [Example 5], the EC50 in series [2] (Renilla, NL43, 120 h) amounted to 0.466 µM.

`Cc1nc(C)c([C@H](OC(C)(C)C)C(=O)O)c2c1-c1ccc(cc1)OC(c1ccc(Cl)cc1)CCCCOC1(C)CCN2CC1` (single isomer, unassigned) [Example 6]: in series [2], the half-maximal effective concentration (EC50) stood at 0.496 µM.

As for `Cc1cc(CN2CCCCCCOC3(C)CCN(CC3)c3c(c(C)nc(C)c3[C@H](OC(C)(C)C)C(=O)O)-c3ccc(cc3)C2)ccc1F` [Example 1, (2S)-2-(tert-Butoxy)-2-{13-[(4-fluoro-3-methylphenyl)methyl]-4,6,21-trimethyl-20-oxa-1,5,13-triazatetracyclo[19.2.2.2^8,11.0^2,7]heptacosa-2,4,6,8,10,26-hexaen-3-yl}acetic acid], the ring closure, yield of all isomers in series [1] (from C=CCCCN(Cc1ccc(-c2c(C)nc(C)c([C@H](OC(C)(C)C)C(=O)OCC)c2N2CCC(C)(OCC=C)CC2)cc1)Cc1ccc(F)c(C)c1, 70.0 °C, 0.83 h) turned out to be 58.9%. For the same compound, in series [2] (Renilla, NL43, 120 h), the EC50 is 0.087 µM.

In the case of `Cc1cc(CN2CCCCCOC3(C)CCN(CC3)c3c(c(C)nc(C)c3[C@H](OC(C)(C)C)C(=O)O)-c3ccc(cc3)C2)ccc1F` [Example 2, (2S)-2-(tert-Butoxy)-2-{13-[(4-fluoro-3-methylphenyl)methyl]-4,6,20-trimethyl-19-oxa-1,5,13-triazatetracyclo[18.2.2.2^8,11.0^2,7]hexacosa-2,4,6,8,10,25-hexaen-3-yl}acetic acid], the ring closure, yield of all isomers in series [1] (from C=CCOC1(C)CCN(c2c(-c3ccc(CN(CC/C=C\CC)Cc4ccc(F)c(C)c4)cc3)c(C)nc(C)c2[C@H](OC(C)(C)C)C(=O)OCC)CC1, 4.35 mM, 75.0 °C, 1.33 h) is 17.2%. The EC50 in series [2] (Renilla, NL43, 120 h) was 0.249 µM.

As a reminder, the EC50 is the concentration needed to bring the measured effect to its halfway point.
